Where no end group is shown, it is not given here.
What follows are sequences tested on luminescent bacteria (assay: Luminescence screen of SPOT-synthesized peptides on luminescent bacteria, with recovery check). Settings: 0.1 M Tris buffer pH 7.4, 20 mM glucose, luminescence after 4 hours, recovery inspected after 18 h.
Type: cell-based
Method: The peptides are synthesized using standard Fmoc-strategy on cellulose with the SPOT technology; they are positively charged peptides, which were then cleaved from the cellulose and solubilized in water. Peptides were transferred into wells containing luminescent bacteria, in 0.1 M Tris buffer (pH 7.4), containing 20 mM glucose. After 4 hours of incubation time, the luminescence was measured using a microtiter plate reader. Consequently, 50 μl of Mueller-Hinton media was added in order to check for recovery of the bacteria. The plates were manually inspected after 18 h of incubation time.

Row | Sequence | antimicrobial activity
1 | KFKWWRMLI (also: cellulose-bound) [KFKWWRMLI (SEQ ID NO.:10), peptide synthesized on cellulose with the SPOT technology] | showed antimicrobial activity
2 | KRKKRFKWW (also: cellulose-bound) [KRKKRFKWW (SEQ ID NO.:29), peptide synthesized on cellulose with the SPOT technology] | showed antimicrobial activity
3 | KRRWRIWLV (also: cellulose-bound) [KRRWRIWLV (SEQ ID NO.:15), peptide synthesized on cellulose with the SPOT technology] | showed antimicrobial activity
4 | LRRWIRIRW (also: cellulose-bound) [LRRWIRIRW (SEQ ID NO.:21), peptide synthesized on cellulose with the SPOT technology] | showed antimicrobial activity
5 | RIRRWKFRW (also: cellulose-bound) [RIRRWKFRW (SEQ ID NO.:6), peptide synthesized on cellulose with the SPOT technology] | showed antimicrobial activity
6 | RKFRWWVIR (also: cellulose-bound) [RKFRWWVIR (SEQ ID NO.:22), peptide synthesized on cellulose with the SPOT technology] | showed antimicrobial activity
7 | RLKRWWKFL (also: cellulose-bound) [RLKRWWKFL (SEQ ID NO.:7), peptide synthesized on cellulose with the SPOT technology] | showed antimicrobial activity
8 | RRRWWKLMM (also: cellulose-bound) [RRRWWKLMM (SEQ ID NO.:20), peptide synthesized on cellulose with the SPOT technology] | showed antimicrobial activity
9 | RTKKWIVWI (also: cellulose-bound) [RTKKWIVWI (SEQ ID NO.:28), peptide synthesized on cellulose with the SPOT technology] | showed antimicrobial activity
10 | WKWRVRVTI (also: cellulose-bound) [WKWRVRVTI (SEQ ID NO.:27), peptide synthesized on cellulose with the SPOT technology] | showed antimicrobial activity
11 | YRLRVKWKW (also: cellulose-bound) [YRLRVKWKW (SEQ ID NO.:26), peptide synthesized on cellulose with the SPOT technology] | showed antimicrobial activity
